Laboratory results published in US20200190507A1, “Encoded Solid Phase Compound Library with Polynucleotide Based Barcoding” (The Scripps Research Institute, priority 2016, published 2020).
Entries after “also recorded” stand apart in the source; their conditions may differ.

Tested on: ATB serum IgGs
Experiment: Antigen competition binding analysis with beads displaying 2-B
Parameters: species or system human
Settings: pooled ATB serum, beads displaying 2-B; CFP 250 μg/mL

Substance | competition with 2-B for binding ATB serum IgGs
Ag85A: Mycobacterium tuberculosis purified native protein Ag85A (Rv3804c), Strain H37Rv | competed; also recorded: compete strongly
recombinant Ag85A: Mycobacterium tuberculosis recombinant protein reference standard Ag85A, NR-49427 | unreactive; also recorded: did not compete
